The target in test [1] is T1, MrgD (Homo sapiens, UniProt Q8TDS7).
T1 construct: expressed in transfected cells
Briefly: Calcium mobilization FLIPR assay, agonist dose-response, CHO-DUKX cells expressing human MrgD. It counts as cell-based. To be noted: for FLIPR response in human MrgD expressing cells: result in words. The method, then:
(§1) A Kozak sequence and HA epitope tag were incorporated in the forward primer. […] A Kozak sequence and c-Myc epitope tag were incorporated in the forward primer. The resulting PCR products were cloned into the Xba I and EcoR I sites of pHTOP vector, a proprietary derivative of the pED expression vector [12]. For transfection, CHO-DUKX-A2 cells (DHFR(−) CHO cell line stably expressing the tetracycline transactivator) were grown in M alpha media containing 1% MEM nonessential amino acids solution (NEAA), 10% fetal bovine serum (FBS), and 500 ug/mL G418. MrgDpHTOP was transfected using Lipofectamine Plus reagents as per the manufacturer's recommendations. Antibiotic selection was performed using Dulbecco's modified Eagle medium supplemented with 10% FBS, 100 units/mL penicillin, 100 μg/mL streptomycin, 1% NEAA, and 20 nM methotrexate (Calbiochem, San Diego, CA). Cell lines were maintained at 37°C in a humidified atmosphere containing 5% CO2. Surviving colonies were expanded further and used for functional analysis. Clones of human MrgD expressing cell lines were evaluated initially for MrgD transcript level by Taqman analysis and normalized against the house-keeping gene GAPDH (Glyceraldehyde-3-phosphate dehydrogenase).
(§2) CHO-DUKX-A2 cells stably expressing human or rat MrgD were plated in 384-well tissue-culture-treated polystyrene black clear flat-bottom assay plates (BD Biosciences, San Jose, CA). Thirty μL of 8 × 10^5 cells/mL (24,000 cells/well) were plated and maintained for ~24 hrs at 37°C in a humidified atmosphere containing 5% CO2. After removal of the growth medium, cells were incubated with 30 μL of Ca3 dye (Molecular Devices Corporation, Sunnyvale, CA) containing 2.5 mM freshly prepared probenecid made according to the manufacturer's protocol. Agonists were prepared in 1x Hanks balanced salt solution (HBSS) buffer with 20 mM HEPES buffer. Changes in intracellular Ca^2+ were monitored using the Fluorometric Imaging Plate Reader (FLIPR; Molecular Devices, Sunnyvale, CA). For the double addition protocols, compounds were added by the FLIPR, and readings were taken for 3 min, followed by the addition of the agonist. The change in intracellular calcium [Ca^2+] was monitored as an increase in relative fluorescence units (RFUS), and the difference between maximum and minimum RFU was used to calculate dose-response curves. Data analysis was performed using PRISM 4.0 (GraphPAD Software Inc.). For the LOPAC screen, cells were plated in 96-well tissue-culture-treated polystyrene black clear flat-bottom assay plates (BD Biosciences, San Jose, CA). One hundred μL of cells (40,000 cells/well) were plated and maintained under the same conditions as above. For the assay, growth medium was replaced with 90 μL of Ca3 dye containing 2.5 mM freshly prepared probenecid. The FLIPR added 10 μL of beta-alanine at 100 μM final concentration. For antagonist dose-response assays, the cells were incubated with the compounds for ~30 minutes after which beta-alanine at a final concentration of 10 μM was added by the FLIPR.
A general note: A change in cytosolic calcium serves as a functional read-out for many receptors and channels.
Target sequence in this assay (Q8TDS7 whole entry): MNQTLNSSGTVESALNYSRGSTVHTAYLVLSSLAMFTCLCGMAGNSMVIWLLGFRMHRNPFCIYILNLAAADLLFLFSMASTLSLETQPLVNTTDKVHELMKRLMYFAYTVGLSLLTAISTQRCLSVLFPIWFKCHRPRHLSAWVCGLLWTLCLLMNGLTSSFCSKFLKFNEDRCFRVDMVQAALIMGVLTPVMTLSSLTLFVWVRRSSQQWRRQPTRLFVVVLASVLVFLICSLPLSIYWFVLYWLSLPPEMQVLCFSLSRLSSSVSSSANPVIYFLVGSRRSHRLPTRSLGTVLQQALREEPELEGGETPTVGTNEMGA

The target in test [2] is T2, rat MrgD (Rattus norvegicus, UniProt Q7TN41).
T2 construct: expressed in transfected cells
T2 sequence (Q7TN41 1-319): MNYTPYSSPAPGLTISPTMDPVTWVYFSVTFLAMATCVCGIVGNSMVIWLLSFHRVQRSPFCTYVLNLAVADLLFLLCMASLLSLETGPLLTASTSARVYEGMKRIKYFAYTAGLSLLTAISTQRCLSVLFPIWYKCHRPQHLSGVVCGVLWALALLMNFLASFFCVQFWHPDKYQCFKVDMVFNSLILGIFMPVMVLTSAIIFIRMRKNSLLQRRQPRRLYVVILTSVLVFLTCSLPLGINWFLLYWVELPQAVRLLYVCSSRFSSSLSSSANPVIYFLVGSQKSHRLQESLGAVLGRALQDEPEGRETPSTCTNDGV
Briefly: Calcium mobilization FLIPR assay, agonist dose-response, CHO-DUKX cells expressing rat MrgD. It counts as cell-based. The settings on record: for EC50 / EC50 Rat MrgD: CHO-DUKX cells, FLIPR, Table 1: mean ± SD from 2–6 independent experiments; for FLIPR response in rat MrgD expressing cells: result in words. The method, then:
as §1, §2

Test [3] has as its system MrgD expressing cell lines. To be noted: read-out: EC50 for MrgD expressing cell lines, cited from earlier work.
Test [4] addresses T1, MrgD. Briefly: Dual-addition FLIPR LOPAC library screen (test compound, then beta-alanine). The test is classed as cell-based. To be noted: dual-addition format; for Calcium mobilization following addition of beta-alanine (addition 2) in LOPAC screen: beta-alanine 100 μM, Figure 4(b). As to the method:
as §2
We developed an assay that could allow both agonists and antagonists to be distinguished in a single screen. Employing such an assay format should enable the identification of tool compounds that may help in elucidating the role of MrgD in pain. The diagram in Figure 3 describes the dual-addition assay format where addition of the test compound (addition 1) is followed by the addition of beta-alanine (addition 2). A FLIPR response immediately upon the addition of a test compound would indicate its activity as an agonist. On the other hand, if the compound behaves as an antagonist, not only will there be a lack of response to this test compound, it will also attenuate the effects of the subsequent addition of beta-alanine. In the event of no receptor engagement by the test compound, a normal agonist response will be observed to beta-alanine. We validated this assay format, which was robust and consistent with a Z′ factor greater than 0.7.
Figure 3 Assay format for the identification of an agonist and antagonist from a single screen. Test compound is added first followed by a second addition of beta-alanine. An agonist will induce a FLIPR response immediately upon the addition of a test compound. An antagonist will cause a pharmacological blockade of the MrgD receptor resulting in attenuation or complete lack of response to beta-alanine. In the event of no receptor engagement, a normal agonist response will be observed from beta-alanine addition.
Figure 4 Representative FLIPR traces obtained from LOPAC screen. Compounds from the LOPAC library were applied followed by the addition of beta-alanine. […]
Target sequence in this assay (Q8TDS7 whole entry, species assumed): as the sequence (Q8TDS7 whole entry) above

For test [5], the target named is T1, MrgD. Briefly: FLIPR antagonist dose-response assay against beta-alanine. The test is classed as cell-based. The settings on record: beta-alanine 10 μM, ~30 min preincubation. As to the method: as §2
Target sequence in this assay (Q8TDS7 whole entry, species assumed): as the sequence (Q8TDS7 whole entry) above
Test [6] relates to beta-alanine-induced calcium mobilization in MrgD CHO-DUKX cells. Briefly: Evaluation of Gi and Gq coupling of MrgD by FLIPR response to beta-alanine. To be noted: 100 μM beta-alanine. The test is classed as cell-based. As to the method: MrgD is known to couple through both Gi and Gq. To further explore the utility of the cell line for a potential secondary assay measuring cAMP, we investigated whether the FLIPR assay was capable of distinguishing the extent of Gi and Gq coupling of MrgD. MrgD CHO-DUKX cells were treated with either the Gi inhibitor pertussis toxin (PTX) overnight or the phospholipase C (PLC) inhibitor U-73122 for 30 or 60 minutes and then evaluated for their responses to beta-alanine.
Figure 2 Evaluation of Gq (Figure 2(a)) and Gi (Figure 2(b)) coupling of MrgD receptors assessed using FLIPR response. MrgD cells were pretreated with the PLC inhibitor (U-73122 at 2 μM for 30 or 60 minutes) or pertussis toxin (100 ng overnight) for blocking Gi coupling to MrgD. FLIPR responses were evaluated by the addition of 100 μM beta-alanine.

Setting [7] is: CHO-DUKX cells, FLIPR, Table 1: mean ± SD from 2–6 independent experiments, read-out: EC50 Human MrgD.
Where [8] appears, read: HA 966 racemate and enantiomers, species not stated at place, racemate value equals human MrgD value of Table 2, read-out: EC50 as MrgD agonist (Figure 5(a)).
The mark [9] stands for this setting: CHO-DUKX cells, FLIPR, Table 1: mean ± SD from 2–6 independent experiments.
Setting [10] is: unit inferred, read-out: IC50 as MrgD antagonist (dose response analysis).

Values joined by “and” are separate entries in the source; they are usually repeats but may differ in a detail not shown here. Identical values can stand only once. Counter-ions that a name gives are not always drawn. Like-named read-outs stand apart in the source and are kept apart here.

The term EC50 denotes the concentration that produces a half-maximal response. With “5, 7 dihydroxytryptamine creatinine sulfate”, the EC50 in test [1] (setting [7]) was 5.2 µM; in test [2], 9.7 µM.
For `NC1CCN(O)C1=O` (racemic) [(±) HA 966] the same measures were 11 µM and 13.2 µM.
As to `NC1CCN(O)C1=O` (single isomer, unassigned; (+)) [(+) HA 966], the EC50 in test [1] (setting [8]) was 106 µM.
Still for that read-out and setting: then `NC1CCN(O)C1=O` (single isomer, unassigned; (-)) [(−) HA 966], with 5.5 µM.
Take `NCCC(=O)O` [Beta-alanine]: the EC50 is 1 to 4 µM and 3.76 µM in test [1] (setting [7]); 1 to 4 µM and 3.77 µM in test [2]; 15 ± 1 µM in test [3] (ref 9); 8.6 µM in test [3] (ref 11).
In the case of `NCCCC(=O)O` [GABA, gamma-aminobutyric acid], the EC50 in test [1] (setting [7]) was found to be 53 ± 26 µM. In addition, the “FLIPR response in human MrgD expressing cells” value in test [1] was “weakly stimulated”. In test [2], the EC50 came out at 49.8 ± 1.5 µM and the “FLIPR response in rat MrgD expressing cells” value is listed as “weakly stimulated”. In addition, the “Response to test compound (addition 1) in LOPAC screen” value in test [4] (Figure 4(a)) was “evoked a response”.
With `NCC1(CC(=O)O)CCCCC1` [Gabapentin], the “EC50 Human MrgD” value in test [1] (setting [9]) was “No effect”. Further, in test [1], the “FLIPR response in human MrgD expressing cells” value was “failed to induce a response”. Besides, in test [2], the “EC50 Rat MrgD” value is “No effect” and the “FLIPR response in rat MrgD expressing cells” value was “failed to induce a response”.
Consider `NCC(=O)O` [Glycine], for which the EC50 in test [1] (setting [7]) was over 100 µM. For the same compound, the “FLIPR response in human MrgD expressing cells” value in test [1] is given as “not”. Further, in test [2], the EC50 was over 100 µM and the “FLIPR response in rat MrgD expressing cells” value is reported as “not”.
With `CC(C)C[C@H](CN)CC(=O)O` [Pregabalin], the “EC50 Human MrgD” value in test [1] (setting [9]) is “No effect”. For the same compound, in test [1], the “FLIPR response in human MrgD expressing cells” value is “failed to induce a response”. Besides, in test [2], the “EC50 Rat MrgD” value was “No effect” and the “FLIPR response in rat MrgD expressing cells” value is listed as “failed to induce a response”.
One may read the IC50 as the concentration at which inhibition is half-maximal. For `CCCN1CCc2cccc3c2[C@H]1Cc1ccc(O)c(O)c1-3.Cl` [R(−)-Propylnorapomorphine hydrochloride], in test [5] (setting [10]), the IC50 was found to be 1.46 µM. Further, the “Calcium mobilization following addition of beta-alanine (addition 2) in LOPAC screen” value (shortened to “Calcium mobilization following addition”) in test [4] is recorded as “attenuation or complete absence of calcium mobilization”.
Take `COc1ccc2c(c1)CC[C@@H]1[C@@H]2CC[C@]2(C)[C@@H](NCCCCCCN3C(=O)C=CC3=O)CC[C@@H]12` [U-73122]: the “Effect on FLIPR response to beta-alanine” value in test [6] (U-73122 at 2 μM for 30 or 60 minutes) was “completely blocked”.
For `CCCn1c(=O)c2[nH]c(-c3ccc(OCC(=O)NCCN)cc3)nc2n(CCC)c1=O` [Xanthine amine congener], the EC50 in test [1] (setting [7]) was over 100 µM; in test [2] it was 48.3 µM.
As to `CN(C)CCCN1c2ccccc2Sc2ccc(Cl)cc21` [chlorpromazine hydrochloride], the IC50 in test [5] (read-out: IC50 as MrgD antagonist (Figure 5 legend)) was 2.7 µM. In test [4], the “Calcium mobilization following addition” value is given as “attenuation or complete absence of calcium mobilization”.
For the compound `CN[C@@H]1C[C@@H](c2ccc(Cl)c(Cl)c2)c2ccccc21` [indatraline hydrochloride], the “Calcium mobilization following addition” value in test [4] is listed as “attenuation or complete absence of calcium mobilization”.
Take `CSc1ccc2c(c1)N(CCC1CCCCN1C)c1ccccc1S2` (centres unmarked) [thioridazine hydrochloride]: in test [5] (setting [10]), the IC50 was found to be 1.06 µM. Further, the “Calcium mobilization following addition” value in test [4] is on record as “attenuation or complete absence of calcium mobilization”.
For pertussis toxin [PTX], the “Reduction in calcium mobilization” value in test [6] (pertussis toxin 100 ng overnight) is about 50%.

The values are drawn from publication PMC2947157, “Development of a FLIPR Assay for the Simultaneous Identification of MrgD Agonists and Antagonists from a Single Screen” (Journal of Biomedicine and Biotechnology, 2010).
